Test results from US5591741A, “Fungicidal spiroheterocyclic derivatives” (American Cyanamid Company, priority 1993, dated 1997).

Assays:
Venturia inaequalis = assay: Activity against apple scab in-vitro (VII); format: cell-based; settings: 10 ppm, 10 days, 20° C., mycelial growth
Method in brief: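 Compound in acetone was tested at 10 ppm final in half-strength Potato Dextrose Broth inoculated with V. inaequalis mycelial fragments and spores at 5×10^4 propagules/ml. After 10 days at 20° C, mycelial growth was rated against untreated or diluent controls.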

Botrytis cinerea = assay: Direct protectant activity against broad bean grey mould (BCB); format: in vivo; settings: direct protectant foliar spray, 600 ppm, 4 days
Method in brief: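 Broad bean plants (cv The Sutton, two leaf pairs) sprayed on upper leaf surfaces at 600 ppm, then inoculated 24 h later with 10^6 conidia/ml. Kept 4 days at 22 °C, high humidity; disease control rated from % leaf area with lesions against untreated or diluent controls.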

Pyricularia oryzae = format: in vivo; settings: rice seedlings, direct therapeutic foliar spray, 600 ppm, 4-5 days
Phytophthora infestans = format: in vivo; settings: tomato, direct protectant foliar spray
[1] = tested on: Erysiphe graminis f.sp. hordei; assay: Direct protectant activity against barley powdery mildew (EGP); format: in vivo; settings: direct protectant foliar spray, 8 days
Method in brief: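 Barley seedlings (cv Golden Promise, single-leaf stage) were foliar-sprayed, held 24 h at 18 °C/40% RH, then dusted with mildew conidia. After 8 days at 18 °C/40% RH, sporulating leaf area was scored as a rating against untreated or diluent-sprayed controls.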

[2] = tested on: Erysiphe graminis f.sp. hordei; assay: Activity against barley powdery mildew, direct therapeutic (EGT); format: in vivo; settings: direct therapeutic foliar spray, 600 ppm, up to 7 days
Method in brief: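 Barley seedlings (cv. Golden Promise, single-leaf stage) were dusted with mildew conidia one day before a therapeutic foliar spray of 600 ppm compound. Plants were kept at 18 °C and 40% humidity for up to 7 days, and sporulating leaf area was rated against untreated or diluent-sprayed controls.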

Plasmopara viticola = assay: Antisporulant activity against vine downy mildew (PVA); format: in vivo; settings: vine leaves, antisporulant foliar spray, 600 ppm, 750 l/ha
Method in brief: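 Cabernet Sauvignon vines (~8 cm) inoculated on lower leaf surfaces with 5×10^4 zoosporangia/ml, held 24 h at 21° C high humidity then 24 h glasshouse. Infected leaves sprayed underside with 600 ppm compound in 1:1 water/acetone, 0.04% Tween 20, 750 l/ha; 96 h glasshouse, 24 h humidity. Sporulating leaf area rated versus control.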

[3] = tested on: Pseudocercosporella herpotrichoides; assay: Activity against wheat eyespot in-vitro (PHI); format: cell-based; settings: 10 ppm, 10 days, 20° C., mycelial growth
Method in brief: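 P. herpotrichoides mycelial fragments (5×10^4/ml) grown in half-strength PDB with compound at 10 ppm final, added from acetone. Incubated 10 days at 20 °C; mycelial growth rated against untreated or diluent controls.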

Rhizoctonia solani = assay: Activity against Rhizoctonia in-vitro (RSI); format: cell-based; settings: 10 ppm, 10 days, 20° C., mycelial growth
Method in brief: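 R. solani mycelial fragments (5×10^4/ml) in half-strength Potato Dextrose Broth with compound added from acetone to 10 ppm final. Mycelial growth assessed after 10 days at 20° C, rated against untreated or diluent control.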

Leptosphaeria nodorum = assay: Activity against wheat leafspot (LN); format: in vivo; settings: direct therapeutic foliar spray, 600 ppm, 6-8 days
Method in brief: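 Wheat cv Norman at single-leaf stage spray-inoculated with 1.5×10^6 conidia/ml, held 24 h at high humidity, then sprayed therapeutically with test compound at 600 ppm. Kept 6-8 days at 22° C, 70% humidity; lesion density per leaf rated against untreated or diluent-sprayed controls.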

Alternaria solani = assay: Activity against tomato early blight (AS); format: in vivo; settings: Table VI; tomato seedlings, contact prophylactic foliar spray, 4 days
Method in brief: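 Foliar contact prophylactic spray on tomato seedlings (cv Outdoor Girl, second true leaf expanded) in acetone/water 50:50 with 0.04% Tween 20; 24 h at 20° C, 40% R.H., then inoculation with 10^4 spores/ml A. solani conidia. Kept moist at 21° C; lesion cover rated 4 days post-inoculation against untreated or diluent-sprayed controls.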

Row | Structure (SMILES) | disease control rating VII (Venturia inaequalis) | disease control rating BCB (Botrytis cinerea) | disease control rating PO (Pyricularia oryzae) | disease control rating PIP (Phytophthora infestans) | disease control rating EGP [1] | disease control rating EGT [2] | disease control rating PVA (Plasmopara viticola) | disease control rating PHI [3] | disease control rating RSI (Rhizoctonia solani) | disease control rating LN (Leptosphaeria nodorum) | disease control rating AS (Alternaria solani)
1 | CN(CC1(C)CCCCC1)C1COC2(CCC(C(C)(C)C)CC2)C1 (stereo not shown) [Compound 125] | 1 (about 50-80% disease control) | 0 (less than 50% disease control) | 0 (less than 50% disease control) | 0 (less than 50% disease control) | 2 (greater than 80% disease control) | 2 (greater than 80% disease control) | 0 (less than 50% disease control) | 1 (about 50-80% disease control) | 0 (less than 50% disease control) | 0 (less than 50% disease control) | 0 (less than 50% disease control)
2 | CCN(CC1(C)CCCCC1)C1COC2(CCC(C(C)(C)C)CC2)C1 (stereo not shown) [Compound 126] | 1 (about 50-80% disease control) | 0 (less than 50% disease control) | 0 (less than 50% disease control) | 0 (less than 50% disease control) | 2 (greater than 80% disease control) | 2 (greater than 80% disease control) | 0 (less than 50% disease control) | 0 (less than 50% disease control) | 0 (less than 50% disease control) | 0 (less than 50% disease control) | 0 (less than 50% disease control)
3 | CCCN(CC1(C)CCCCC1)C1COC2(CCC(C(C)(C)C)CC2)C1 (stereo not shown) [Compound 127] | 1 (about 50-80% disease control) | 0 (less than 50% disease control) | 0 (less than 50% disease control) | 0 (less than 50% disease control) | 2 (greater than 80% disease control) | 2 (greater than 80% disease control) | 0 (less than 50% disease control) | 0 (less than 50% disease control) | 0 (less than 50% disease control) | 0 (less than 50% disease control) | 0 (less than 50% disease control)
4 | CN(C1COC2(CCC(C(C)(C)C)CC2)C1)C1CC2CCC1C2 (stereo not shown) [Compound 128] | 1 (about 50-80% disease control) | 0 (less than 50% disease control) | 0 (less than 50% disease control) | 0 (less than 50% disease control) | 2 (greater than 80% disease control) | 2 (greater than 80% disease control) | 0 (less than 50% disease control) | 0 (less than 50% disease control) | 0 (less than 50% disease control) | 0 (less than 50% disease control) | 2 (greater than 80% disease control)
5 | CCN(C1COC2(CCC(C(C)(C)C)CC2)C1)C1CC2CCC1C2 (stereo not shown) [Compound 129] | 1 (about 50-80% disease control) | 0 (less than 50% disease control) | 0 (less than 50% disease control) | 0 (less than 50% disease control) | 2 (greater than 80% disease control) | 2 (greater than 80% disease control) | 0 (less than 50% disease control) | 0 (less than 50% disease control) | 0 (less than 50% disease control) | 0 (less than 50% disease control) | 0 (less than 50% disease control)
